From patent US20060217370A1, “Compounds useful for the treatment and prevention of pain and screening methods therefor” (priority 2005, published 2006)

Legend:
Assay in all cases: Receptor Selection and Amplification Technology (R-SAT) functional receptor assay
[1] = biological target: T1, human MrgX1 (Homo sapiens, UniProt Q96LB2); format: cell-based; conditions: for Human-X1 Eff(%): efficacy relative to Bam22, nr = no response up to 10 micromolar
T1 construct: expressed in transfected cells; host or cells: NIH3T3
Description: (§1) The functional receptor assay, Receptor Selection and Amplification Technology (R-SAT), was used to investigate the pharmacological properties of test compounds on MRGX1 or MRGX2 receptors. R-SAT is disclosed in U.S. Pat. Nos. 5,707,798, 5,912,132, and 5,955,281, each of which is incorporated by reference herein in its entirety, including any drawings.
(§2) Briefly, NIH3T3 cells were grown in 96-well tissue culture plates to 70-80% confluence. Cells were transfected for 16-20 h with plasmid DNAs using Polyfect (Qiagen Inc.) and the manufacturer's protocols. R-SATs were generally performed with 4 ng/well of receptor and 20 ng/well of β-galactosidase plasmid DNA. The human MrgX1, simian MrgX1, human MrgX2 and simian MrgX2 receptor genes were amplified by PCR from genomic DNA using oligodeoxynucleotide primers based on SEQ ID NO:1, SEQ ID NO:3, SEQ ID NO:5, SEQ ID NO:7, or SEQ ID NO:9. For large-scale transfections, cells were transfected for 16-20 h, then trypsinized and frozen in DMSO. Frozen cells were later thawed, plated at ˜10,000 cells per well of a 96 half-area well plate that contained test compound. With both methods, cells were then grown in a humidified atmosphere with 5% ambient CO2 for five days. The medium was then removed from the plates and marker gene activity was measured by the addition of the β-galactosidase substrate o-nitrophenyl β-galactopyranoside (ONPG, in PBS with 0.5% NP-40). The resulting colorimetric reaction was measured in a spectrophotometric plate reader (Titertek Inc.) at 420 nm. All data were analyzed using the computer program XLFit (IDBSm). Efficacy is defined as the percent maximal activation compared to activation by a control compound (BAM22 in the case of human or simian MRGX1, STIA or Cortistatin-14 in the case of human or simian MRGX2). pEC50 is the negative of log(EC50), where EC50 is the calculated molar concentration of test compound that produces 50% of maximum activation.
(§3) Efficacy is reported relative to the ligands Bam22 for MrgX1 and STIA for MrgX2.

[2] = biological target: T2, human MrgX2 (Homo sapiens, UniProt Q96LB1); format: cell-based; conditions: for Human-X2 Eff(%): efficacy relative to STIA, nr = no response up to 10 micromolar; for EC50: transfected NIH3T3 cells, read-out: Human-X2 pEC50 (converted)
T2 construct: expressed in transfected cells; host or cells: NIH3T3
T2 sequence (Q96LB1 1-330): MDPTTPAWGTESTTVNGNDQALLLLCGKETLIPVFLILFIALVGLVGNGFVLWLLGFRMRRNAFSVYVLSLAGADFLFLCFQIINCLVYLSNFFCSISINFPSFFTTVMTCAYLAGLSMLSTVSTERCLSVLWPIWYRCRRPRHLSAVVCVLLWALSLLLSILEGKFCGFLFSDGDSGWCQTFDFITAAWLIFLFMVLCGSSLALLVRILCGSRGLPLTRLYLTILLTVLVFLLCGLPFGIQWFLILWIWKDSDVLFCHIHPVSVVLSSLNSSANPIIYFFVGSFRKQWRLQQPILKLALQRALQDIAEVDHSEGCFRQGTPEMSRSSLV
Description: as §1, §2, §3

[3] = biological target: simian MrgX1 (Macaca mulatta, UniProt Q1L4E8, cells depend on it, form not given, species not given); format: cell-based, monkey; conditions: efficacy relative to Bam22, nr = no response up to 10 micromolar
Description: as §1
Briefly, NIH3T3 cells were grown in 96-well tissue culture plates to 70-80% confluence. Cells were transfected for 16-20 h with plasmid DNAs using Polyfect (Qiagen Inc.) and the manufacturer's protocols. R-SATs were generally performed with 4 ng/well of receptor and 20 ng/well of β-galactosidase plasmid DNA. The human MrgX1, simian MrgX1, human MrgX2 and simian MrgX2 receptor genes were amplified by PCR from genomic DNA using oligodeoxynucleotide primers based on SEQ ID NO:1, SEQ ID NO:3, SEQ ID NO:5, SEQ ID NO:7, or SEQ ID NO:9. For large-scale transfections, cells were transfected for 16-20 h, then trypsinized and frozen in DMSO. […] The medium was then removed from the plates and marker gene activity was measured by the addition of the β-galactosidase substrate o-nitrophenyl β-galactopyranoside (ONPG, in PBS with 0.5% NP-40). The resulting colorimetric reaction was measured in a spectrophotometric plate reader (Titertek Inc.) at 420 nm. All data were analyzed using the computer program XLFit (IDBSm). […]

T1 sequence (Q96LB2 whole entry): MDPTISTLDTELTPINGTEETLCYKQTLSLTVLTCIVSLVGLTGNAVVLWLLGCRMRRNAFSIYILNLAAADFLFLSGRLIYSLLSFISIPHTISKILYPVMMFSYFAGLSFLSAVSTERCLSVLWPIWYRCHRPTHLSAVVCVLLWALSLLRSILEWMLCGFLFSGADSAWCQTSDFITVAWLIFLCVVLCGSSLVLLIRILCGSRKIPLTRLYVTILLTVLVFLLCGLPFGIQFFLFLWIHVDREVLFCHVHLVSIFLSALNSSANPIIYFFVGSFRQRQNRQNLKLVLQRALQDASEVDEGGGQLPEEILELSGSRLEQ
Sequence of simian MrgX1 (Q1L4E8 1-322, change not shown): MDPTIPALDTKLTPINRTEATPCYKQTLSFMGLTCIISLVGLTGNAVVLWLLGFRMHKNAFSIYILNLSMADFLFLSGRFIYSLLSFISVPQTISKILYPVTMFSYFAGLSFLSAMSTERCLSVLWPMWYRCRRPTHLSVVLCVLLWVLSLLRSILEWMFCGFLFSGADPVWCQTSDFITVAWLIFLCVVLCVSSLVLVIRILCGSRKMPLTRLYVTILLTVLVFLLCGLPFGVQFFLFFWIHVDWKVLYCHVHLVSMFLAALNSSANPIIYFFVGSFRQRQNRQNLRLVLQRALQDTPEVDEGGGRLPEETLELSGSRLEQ

| Compound | Human-X1 Eff(%) [1] | EC50 ([1]; transfected NIH3T3 cells, read-out: Human-X1 pEC50 (converted)) [nM] | Human-X2 Eff(%) [2] [%] | EC50 [2] [nM] | Monkey-X1 Eff(%) [3] |
| --- | --- | --- | --- | --- | --- |
| CC[C@H](C)C1C(=O)Nc2ccc(NCCCN(C)C)cc2-c2nc3cc(C(=O)NCc4cccc(C(F)(F)F)c4)ccc3n21 (some centres unmarked) [Mrg-173] | 124% | 39.8 | 98 | 316 |  |
| CC(C)C1C(=O)Nc2ccc(N3CCN(Cc4ccccc4)CC3)cc2-c2nc3cc(C(=O)N(C)C4CCN(C)CC4)ccc3n21 (centres unmarked) [Mrg-606] | nr |  | 174 | 100 | nr |
